Patent US8048892B2, “Azaquinolone based compounds exhibiting prolyl hydroxylase inhibitory activity, compositions, and uses thereof” (Amgen Inc., priority 2006, dated 2011)
Structures can show the parent of a compound that is named as a salt.

Molecular target: HIF PHD2 (Homo sapiens, UniProt Q9GZT9)
Test: PHD2 inhibition assay (TR-FRET, VCB-Eu detection of hydroxylated P564-HIF1α peptide)
Assay type: biochemical
Conditions: 2 nM PHD2, 100 nM P564-HIF1α peptide, 0.25 μM 2-oxoglutarate
Procedure, shortened: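 Human PHD2 (2 nM final) preincubated 1 h at room temperature with compound and 100 μM FeCl2 in pH 6 MES buffer, 5% DMSO final. Reaction with 100 nM biotinylated P564-HIF1α peptide, 2 mM ascorbate and 0.25 μM 2-oxoglutarate for 1 h, stopped with succinate. Hydroxylation read by TR-FRET (VCB-Eu/streptavidin-APC, 655/615 nm); IC50 from 4-parameter fit of percent of control.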

Chain of HIF PHD2 (Q9GZT9 whole entry): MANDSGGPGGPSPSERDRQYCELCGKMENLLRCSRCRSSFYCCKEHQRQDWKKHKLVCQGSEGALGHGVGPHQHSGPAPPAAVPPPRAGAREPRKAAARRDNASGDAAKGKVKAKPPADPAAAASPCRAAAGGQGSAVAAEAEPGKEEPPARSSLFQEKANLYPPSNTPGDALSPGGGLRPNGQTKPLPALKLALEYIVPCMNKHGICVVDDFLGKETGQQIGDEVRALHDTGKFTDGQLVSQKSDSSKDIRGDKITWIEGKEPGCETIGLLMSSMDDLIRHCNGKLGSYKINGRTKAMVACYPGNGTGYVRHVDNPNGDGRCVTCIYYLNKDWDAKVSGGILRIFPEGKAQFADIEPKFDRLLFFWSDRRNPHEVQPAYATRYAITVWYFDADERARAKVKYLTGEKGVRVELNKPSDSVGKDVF

| IC50 | SMILES |
| --- | --- |
| < 0.05 µM | CN1CCC(c2cc3c(O)c(C(=O)NCC(=O)O)c(=O)n(C)c3cn2)CC1 [Example 117, 2-(4-Hydroxy-1-methyl-6-(1-methylpiperidin-4-yl)-2-oxo-1,2-dihydro-1,7-naphthyridine-3-carboxamido)acetic acid, Trifluoroacetic acid salt] |
| < 0.05 µM | CC(=O)N1CC=C(c2cc3c(O)c(C(=O)NCC(=O)O)c(=O)n(C)c3cn2)CC1 [Example 118, 2-(6-(1-Acetyl-1,2,3,6-tetrahydropyridin-4-yl)-4-hydroxy-1-methyl-2-oxo-1,2-dihydro-1,7-naphthyridine-3-carboxamido)acetic acid, Trifluoroacetic acid salt] |
| < 0.05 µM | CC(=O)N1CCC(c2cc3c(O)c(C(=O)NCC(=O)O)c(=O)n(C)c3cn2)CC1 [Example 119, 2-(6-(1-Acetylpiperidin-4-yl)-4-hydroxy-1-methyl-2-oxo-1,2-dihydro-1,7-naphthyridine-3-carboxamido)acetic acid, Trifluoroacetic acid salt] |
| < 0.05 µM | Cn1c(=O)c(C(=O)NCC(=O)O)c(O)c2cc(N3CCOCC3)ncc21 [Example 120, 2-(4-Hydroxy-1-methyl-6-morpholino-2-oxo-1,2-dihydro-1,7-naphthyridine-3-carboxamido)acetic acid, Trifluoroacetic acid salt] |
| 0.05 to 0.1 µM | Cn1c(=O)c(C(=O)NCC(=O)O)c(O)c2cc(N3CCCCC3)ncc21 [Example 121, 2-(4-Hydroxy-1-methyl-2-oxo-6-(piperidin-1-yl)-1,2-dihydro-1,7-naphthyridine-3-carboxamido)acetic acid, Trifluoroacetic acid salt] |
| 0.1 to 0.5 µM | CN1CCN(c2cc3c(O)c(C(=O)NCC(=O)O)c(=O)n(C)c3cn2)CC1 [Example 122, 2-(4-Hydroxy-1-methyl-6-(4-methylpiperazin-1-yl)-2-oxo-1,2-dihydro-1,7-naphthyridine-3-carboxamido)acetic acid, Trifluoroacetic acid salt] |
| < 0.05 µM | Cn1c(=O)c(C(=O)NCC(=O)O)c(O)c2cc(Cl)[n+]([O-])cc21 [Example 123, 2-(6-Chloro-4-hydroxy-1-methyl-2-oxo-1,2-dihydro-1,7-naphthyridine-3-carboxamido)acetic acid, N-oxide] |
| 0.1 to 0.5 µM | Cn1c(=O)c(C(=O)NCC(=O)O)c(O)c2cc(-c3ccccc3)nc(C(F)(F)F)c21 [Example 124, 2-(4-Hydroxy-1-methyl-2-oxo-6-phenyl-8-(trifluoromethyl)-1,2-dihydro-1,7-naphthyridine-3-carboxamido)acetic acid] |
| < 0.05 µM | Cc1ccccc1-c1cc2c(O)c(C(=O)NCC(=O)O)c(=O)n(C)c2c(C(F)(F)F)n1 [Example 125, N-((4-Hydroxy-1-methyl-6-(2-methylphenyl)-2-oxo-8-(trifluoromethyl)-1,2-dihydro-1,7-naphthyridin-3-yl)carbonyl)glycine] |
| 0.05 to 0.1 µM | Cn1c(=O)c(C(=O)NCC(=O)O)c(O)c2ccnc(Cl)c21 [Example 126, 2-(8-Chloro-4-hydroxy-1-methyl-2-oxo-1,2-dihydro-1,7-naphthyridine-3-carboxamido)acetic acid] |
| < 0.05 µM | Cn1c(=O)c(C(=O)NCC(=O)O)c(O)c2ccnc(C(F)(F)F)c21 [Example 127, 2-(4-Hydroxy-1-methyl-2-oxo-8-(trifluoromethyl)-1,2-dihydro-1,7-naphthyridine-3-carboxamido)acetic acid] |
| < 0.05 µM | Cn1c(=O)c(C(=O)NCC(=O)O)c(O)c2ccnc(-c3ccccc3)c21 [Example 128, 2-(4-Hydroxy-1-methyl-2-oxo-8-phenyl-1,2-dihydro-1,7-naphthyridine-3-carboxamido)acetic acid] |
| < 0.05 µM | Cn1c(=O)c(C(=O)NCC(=O)O)c(O)c2c(NCC(=O)O)nccc21 [Example 129, 2-{4-Hydroxy-1-methyl-2-oxo-3-[(carboxymethyl)carbamoyl]-1,2-dihydro-1,6-naphthyridin-5-ylamino}acetic acid, Trifluoroacetic acid salt] |
| < 0.05 µM | Cn1c(=O)c(C(=O)NCC(=O)O)c(O)c2c(Br)nccc21 [Example 130, 2-(5-Bromo-4-hydroxy-1-methyl-2-oxo-1,2-dihydro-1,6-naphthyridine-3-carboxamido)acetic acid, Trifluoroacetic acid salt] |
| < 0.05 µM | Cn1c(=O)c(C(=O)NCC(=O)O)c(O)c2c(Cl)nccc21 [Example 131, 2-(5-Chloro-4-hydroxy-1-methyl-2-oxo-1,2-dihydro-1,6-naphthyridine-3-carboxamido)acetic acid] |
| 0.05 to 0.1 µM | Cn1c(=O)c(C(=O)NCC(=O)O)c(O)c2c(C(F)(F)F)nccc21 [Example 132, 2-(4-Hydroxy-1-methyl-2-oxo-5-(trifluoromethyl)-1,2-dihydro-1,6-naphthyridine-3-carboxamido)acetic acid, Trifluoroacetic acid salt] |
| 0.5 to 1 µM | Cn1c(=O)c(C(=O)N[C@@H](CO)C(=O)O)c(O)c2cc(C3=CCCCC3)cnc21 [Example 133, (S)-2-(6-cyclohexenyl-4-hydroxy-1-methyl-2-oxo-1,2-dihydro-1,8-naphthyridine-3-carboxamido)-3-hydroxypropanoic acid] |
